Experimental data reported in US6294562A, “Salts of ethyl 3-(2-(4-(4-amino-imino-methyl)phenyl)-4-methyl-2,5-dioxo-imidazolidin-1-yl )acetylamino)-3-phenylpropionate” (Hoechst Aktiengesellschaft, priority 1996, dated 2001).

What was measured:
[1] = Solid state form and hygroscopicity, as stated in the description; format: physicochemical; conditions: hydrochloride salts
[2] = Determination of water vapor sorption (automatic two-limbed microbalance, 25° C.); format: physicochemical
Experimental: The water uptake of a substance was determined using an automatic two-limbed microbalance which is operated in vacuo or in an atmosphere which has a defined composition or a defined pressure. The dry sample is located on one side of the balance and a taring weight is located on the other side. A water vapor atmosphere, whose pressure was increased stepwise, was generated in the weighing space. The increase in weight of the sample as a function of the water vapor pressure was recorded. The measurement was carried out at a constant temperature of 25° C.
The weighing space was first of all evacuated to constant weight and the starting weight of the sample was determined. A defined quantity of water vapor was then passed into the evacuated weighing space through an inlet valve. In the experiment which is reproduced below, the water vapor pressure which was set in this first step corresponds, at the measuring temperature of 25° C., to a relative atmospheric humidity of 4.7%. When constant weight was once again reached after passing in the water vapor, i.e. when the sample was in equilibrium with the water vapor atmosphere, the increase in weight of the sample was recorded. After that, the water vapor pressure was increased in several steps by passing in further water vapor (with each water vapor pressure corresponding to a defined relative atmospheric humidity at the measuring temperature of 25° C.). In each step, the increase in weight of the sample was recorded after constant weight had been reached. When ethyl (S)-3-(2-((S)-4-(4-(amino-imino-methyl)phenyl)-4-methyl-2,5-dioxo-imidazolidin-1-yl)-acetylamino)-3-phenylpropionate hydrogen maleate was examined, the following weight increases, based on the starting weight of the sample, were observed.

[3] = system: coronary cyclic flow variations (recurrent formation of platelet rich thrombi); experiment: Coronary cyclic flow variations in dogs (model of unstable angina); format: in vivo, dog
From the text: (§1) Dogs of either sex (20-35 kg) were anesthetized (Ketamine plus sodium pentobarbital infusion), ventilated and instrumented for the measurement of hemodynamic parameters (peripheral and left ventricular blood pressure, myocardial contractility, heart rate), and ECG. Blood gases and hematocrit were kept constant by infusion of electrolytes. After a left thoracotomy, the heart was exposed and the left circumflex coronary artery (LCX) was instrumented with an electromagnetic flow probe to measure mean coronary blood flow. Distal to the flow probe, the LCX was shortly squeezed with forceps in order to damage the endothelium, and a small concentrically constricting plastic cylinder was placed onto the damaged site (between 1.0 and 1.7 mm inner diameter, depending on the size of the LCX, and 4 mm length). The constrictor abolished the reactive hyperemic response to a 10 second occlusion of the LCX and initiated the appearance of flow cycles (approx. 10 per hour) resulting from recurrent formation of platelet rich thrombi at the stenosed site. After 60 min of regular cyclic flow variations, the test compounds were administered by intravenous or intraduodenal bolus application. Cyclic flow variations were further monitored for at least 2 to 5 hours. Percent inhibition of coronary thrombotic cyclic flow variations was calculated by comparison of the mean number of cyclic flow variations per hour before and after administration of the compound in 5 to 8 animals. In control animals, the number of cyclic flow variations per hour remained constant for several hours. (References: Folts, J. D. et al. (1976), Circulation 54: 365-370; Just, M. et al. (1989), J. Cardiovasc. Pharmacol. 14 (suppl. 11): S 129-136)
When ethyl (S)-3-(2-((S)-4-(4-(amino-imino-methyl)phenyl)-4methyl-2,5-dioxoimidazolidin-1-yl)acetylamino)-3-phenylpropionate hydrogen maleate was examined the following results were obtained. Given is the percent reduction of the number of stenosis induced coronary cyclic flow variations (CFV's) per hour in the first, the second and the third hour after administration of the test compound as compared to the predrug period. The dose is given in mg per kg of body weight.

[4] = system: ADP-induced ex vivo platelet aggregation; experiment: Ex vivo platelet aggregation inhibition in dogs, ADP-induced; design: species or system dog; conditions: for Inhibition of aggregation: ADP
Experimental: (§2) Dogs of either sex (mixed breed of Labrador/Harrier, body weight 21-28 kg) were fasted overnight. The test compounds were administered orally in gelatine capsules or intravenously. Before administration of the test compounds and several times during 24 hours thereafter, 20 ml of blood were withdrawn from the cephalic vein into acid citrate dextrose (9+1volumes). Platelet rich plasma (PRP) was obtained by centrifugation. Platelet aggregation was measured in PRP after addition of either ADP (3-30 μmol/l) or collagen (0.3-10 μg/ml) plus epinephrine (10 μM) at 37° C. in an aggregometer (BioData). Percent of maximal aggregation before and after drug administration was compared. The percent inhibition of aggregation at the lowest concentration of the agonist which induced irreversible maximal aggregation is given. In addition, the cutaneous bleeding time was measured at the shaved inner forearm using the Simplate® 1 device at the times of blood collection. Percent prolongation of bleeding time after drug administration as compared to the predrug value is calculated.
(§3) When ethyl (S)-3-(2-( (S)-4-(4-(amino-imino-methyl) phenyl)-4-methyl-2,5-dioxoimidazolidin-1-yl)acetylamino)-3-phenylpropionate hydrogen maleate was examined the following results were obtained. Given is the percent inhibition of platelet aggregation 1 h, 4 h, 8 h and 24 h after administration of the test substance. The dose is given in mg per kg body weight. n is the number of dogs tested.

[5] = system: collagen induced ex vivo platelet aggregation; experiment: Ex vivo platelet aggregation inhibition in dogs, collagen induced; design: species or system dog; conditions: collagen plus epinephrine
Experimental: as §2, §3

[6] = Cutaneous bleeding time in dogs (Simplate 1 device); format: in vivo, dog; conditions: for maximal prolongation of bleeding time: p<0.05
Experimental: as §2

[7] = Hemodynamic parameters in the coronary cyclic flow variation model in dogs; format: in vivo, dog; conditions: all hemodynamic parameters, intravenous or intraduodenal
From the text: as §1, with “After 60 min of regular cyclic flow variations, the test compounds were administered by intravenous or intraduodenal bolus application.” left out, “In control animals, the number of cyclic flow variations per hour remained constant for several hours. (References: Folts, J. D. et al. (1976), Circulation 54: 365-370; Just, M. et al. (1989), J. Cardiovasc. Pharmacol. 14 (suppl. 11): S 129-136)” left out

[8] = 0.5 mg/kg intravenously, n=6, after 1 h
[9] = 0.5 mg/kg intravenously, n=6, after 4 h
[10] = 0.5 mg/kg intravenously, n=6, after 8 h
[11] = 0.5 mg/kg intravenously, n=6, after 24 h
[12] = 0.5 mg/kg orally, n=6, after 1 h
[13] = 0.5 mg/kg orally, n=6, after 4 h
[14] = 0.5 mg/kg orally, n=6, after 8 h
[15] = 0.5 mg/kg orally, n=6, after 24 h
[16] = 1 mg/kg orally, n=6, after 24 h
[17] = 2 mg/kg orally, n=8, after 24 h

Question: Which solid state form [1] does the source give for `CCOC(=O)C[C@H](NC(=O)CN1C(=O)N[C@](C)(c2ccc(C(=N)N)cc2)C1=O)c1ccccc1` [ethyl (S)-3-(2-((R)-4-(4-(amino-imino-methyl)phenyl)-4-methyl-2,5-dioxoimidazolidin-1-yl)-acetylamino)-3-phenylpropionate] here?
Answer: Its solid state form is “amorphous and cannot be obtained in the crystalline state”.

Question: Which solid state form [1] does the source give for `CCOC(=O)C[C@@H](NC(=O)CN1C(=O)N[C@@](C)(c2ccc(C(=N)N)cc2)C1=O)c1ccccc1` [ethyl (R)-3-(2-((S)-4-(4-(amino-imino-methyl)phenyl)-4-methyl-2,5-dioxoimidazolidin-1-yl)acetylamino)-3-phenylpropionate] here?
Answer: Its solid state form is “amorphous and cannot be obtained in the crystalline state”.

Question: For `CCOC(=O)C[C@@H](NC(=O)CN1C(=O)N[C@](C)(c2ccc(C(=N)N)cc2)C1=O)c1ccccc1` [ethyl (R)-3-(2-((R)-4-(4-(amino-imino-methyl)phenyl)-4-methyl-2,5-dioxo-imidazolidin-1-yl)acetylamino)-3-phenylpropionate], which solid state form [1] is on record?
Answer: The solid state form was “amorphous and cannot be obtained in the crystalline state”.

Question: Which results are given for `CCOC(=O)C[C@H](NC(=O)CN1C(=O)N[C@@](C)(c2ccc(C(=N)N)cc2)C1=O)c1ccccc1.O=C(O)/C=C\C(=O)O` [Ethyl (S)-3-(2-((S)-4-(4-(amino-imino-methyl)phenyl)-4-methyl-2,5-dioxo-imidazolidin-1-yl)acetylamino)-3-phenylpropionate hydrogen maleate]?
Answer: hygroscopicity ([2]; 25° C.): not hygroscopic; increase in weight ([2]; relative atmospheric humidity of approx. 80%): approx. 0.5%; Increase in weight of the sample ([2]; relative humidity 4.7%, 25° C.): 0.06%; Increase in weight of the sample ([2]; relative humidity 18.5%, 25° C.): 0.11%; Increase in weight of the sample ([2]; relative humidity 32.8%, 25° C.): 0.16%; Increase in weight of the sample ([2]; relative humidity 49.6%, 25° C.): 0.23%; Increase in weight of the sample ([2]; relative humidity 64.7%, 25° C.): 0.33%; Increase in weight of the sample ([2]; relative humidity 75.5%, 25° C.): 0.43%; Increase in weight of the sample ([2]; relative humidity 82.1%, 25° C.): 0.54%; Reduction of CFV's ([3]; 0.1 mg/kg intraduodenally, first hour): 39%; Reduction of CFV's ([3]; 0.1 mg/kg intraduodenally, second hour): 62%; Reduction of CFV's ([3]; 0.1 mg/kg intraduodenally, third hour): 74%; Reduction of CFV's ([3]; 0.1 mg/kg intravenously, first hour): 52%; Reduction of CFV's ([3]; 0.1 mg/kg intravenously, second hour): 81%; Reduction of CFV's ([3]; 0.1 mg/kg intravenously, third hour): 89%; Reduction of CFV's ([3]; 0.2 mg/kg intravenously, first hour): 75%; Reduction of CFV's ([3]; 0.2 mg/kg intravenously, second hour): 96%; Reduction of CFV's ([3]; 0.2 mg/kg intravenously, third hour): 99%; Reduction of CFV's ([3]; 0.3 mg/kg intraduodenally, first hour): 23%; Reduction of CFV's ([3]; 0.3 mg/kg intraduodenally, second hour): 66%; Reduction of CFV's ([3]; 0.3 mg/kg intraduodenally, third hour): 78%; antithrombotic activity ([3]; dog, in vivo): powerful antithrombotic activity; Inhibition of aggregation [4, 8]: 93%; Inhibition of aggregation [4, 9]: 88%; Inhibition of aggregation [4, 10]: 59%; Inhibition of aggregation [4, 11]: 16%; Inhibition of aggregation [4, 12]: 46%; Inhibition of aggregation [4, 13]: 83%; Inhibition of aggregation [4, 14]: 33%; Inhibition of aggregation [4, 15]: 18%; Inhibition of aggregation ([4]; 1 mg/kg orally, n=6, after 1 h): 76%; Inhibition of aggregation ([4]; 1 mg/kg orally, n=6, after 4 h): 97%; Inhibition of aggregation ([4]; 1 mg/kg orally, n=6, after 8 h): 86%; Inhibition of aggregation [4, 16]: 70%; Inhibition of aggregation ([4]; 2 mg/kg orally, n=8, after 1 h): 64%; Inhibition of aggregation ([4]; 2 mg/kg orally, n=8, after 4 h): 86%; Inhibition of aggregation ([4]; 2 mg/kg orally, n=8, after 8 h): 78%; Inhibition of aggregation [4, 17]: 49%; efficacy as inhibitor of platelet aggregation ([4]; in words, ADP- and collagen-induced): pronounced efficacy; Inhibition of aggregation [5, 8]: 27%; Inhibition of aggregation [5, 9]: 26%; Inhibition of aggregation [5, 10]: 18%; Inhibition of aggregation [5, 11]: 0%; Inhibition of aggregation [5, 12]: 8%; Inhibition of aggregation [5, 13]: 19%; Inhibition of aggregation [5, 14]: 5%; Inhibition of aggregation [5, 15]: 0%; Inhibition of aggregation ([5]; 1 mg/kg orally, n=6, after 1 h): 36%; Inhibition of aggregation ([5]; 1 mg/kg orally, n=6, after 4 h): 67%; Inhibition of aggregation ([5]; 1 mg/kg orally, n=6, after 8 h): 50%; Inhibition of aggregation [5, 16]: 11%; Inhibition of aggregation ([5]; 2 mg/kg orally, n=8, after 1 h): 28%; Inhibition of aggregation ([5]; 2 mg/kg orally, n=8, after 4 h): 65%; Inhibition of aggregation ([5]; 2 mg/kg orally, n=8, after 8 h): 60%; Inhibition of aggregation [5, 17]: 20%; maximal prolongation of bleeding time ([6]; 0.5 mg/kg intravenous, at 4 hours): 68%; maximal prolongation of bleeding time ([6]; 2 mg/kg oral, at 2 hours): 122%; bleeding times ([6]; at the lower oral doses (0.5 and 1 mg/kg)): not significantly changed; hemodynamic parameters recorded during the test [7]: not significantly changed

Question: Which solid state form [1] does the source give for `CCOC(=O)C[C@H](NC(=O)CN1C(=O)N[C@@](C)(c2ccc(C(=N)N)cc2)C1=O)c1ccccc1` [ethyl (S)-3-(2-((S)-4-(4-(amino-imino-methyl)phenyl)-4-methyl-2,5-dioxoimidazolidin-1-yl)acetylamino)-3-phenylpropionate] here?
Answer: Its solid state form is “amorphous and cannot be obtained in the crystalline state”.
